Patent publication US20260364028A1, “COMBINATION TREATMENTS FOR DEPRESSION AND OTHER DISORDERS” (NEURAWELL THERAPEUTICS, priority 2023, published 2026)
Where two headings read alike, the source gives them in different places.

Tests used:
[1] = test system: systolic or diastolic blood pressure; conditions: cited from earlier work
[2] = plasma, cited from earlier work
[3] = test system: tyramine pressor response; conditions: cited from earlier work; for TSF High / TSF Low: literature-reported
[4] = target: T1, Monoamine Oxidase MAO-B (Homo sapiens, UniProt P27338); assay: Monoamine oxidase MAO-B inhibition enzyme assay (kynuramine, spectrofluorimetric); type: biochemical; conditions: for inhibition at 2 µM: read-out: % MAO-B inhibition
T1 construct: host or cells: insect cells (recombinant)
T1 sequence (P27338 1-520): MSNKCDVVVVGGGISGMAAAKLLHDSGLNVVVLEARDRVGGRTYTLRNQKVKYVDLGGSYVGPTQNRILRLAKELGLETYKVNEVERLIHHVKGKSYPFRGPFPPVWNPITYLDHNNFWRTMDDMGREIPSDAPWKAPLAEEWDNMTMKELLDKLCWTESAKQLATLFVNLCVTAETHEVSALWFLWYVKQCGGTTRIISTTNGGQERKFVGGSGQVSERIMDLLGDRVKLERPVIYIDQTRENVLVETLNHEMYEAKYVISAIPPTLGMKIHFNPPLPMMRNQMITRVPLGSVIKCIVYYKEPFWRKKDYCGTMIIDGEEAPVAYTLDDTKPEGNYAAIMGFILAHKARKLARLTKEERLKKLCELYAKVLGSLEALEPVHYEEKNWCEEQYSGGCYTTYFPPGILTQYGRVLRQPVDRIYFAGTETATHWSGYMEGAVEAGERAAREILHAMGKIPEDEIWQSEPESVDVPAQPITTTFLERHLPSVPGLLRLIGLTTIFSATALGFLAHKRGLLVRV

[5] = target: T2, Monoamine Oxidase MAO-A (Homo sapiens, UniProt P21397); assay: Monoamine oxidase MAO-A inhibition enzyme assay (kynuramine, spectrofluorimetric); type: biochemical; conditions: for interference with the inhibition of MAO-A by phenelzine (in words): beta blocker in presence of phenelzine […] nM and 150 nM; for inhibition at 2 µM / inhibitory activity of MAO-A (in words): beta blocker alone; for inhibitory activity of MAO-A (in words): significant = ≥50% inhibition
T2 construct: host or cells: insect cells (recombinant)
T2 sequence (P21397 1-527): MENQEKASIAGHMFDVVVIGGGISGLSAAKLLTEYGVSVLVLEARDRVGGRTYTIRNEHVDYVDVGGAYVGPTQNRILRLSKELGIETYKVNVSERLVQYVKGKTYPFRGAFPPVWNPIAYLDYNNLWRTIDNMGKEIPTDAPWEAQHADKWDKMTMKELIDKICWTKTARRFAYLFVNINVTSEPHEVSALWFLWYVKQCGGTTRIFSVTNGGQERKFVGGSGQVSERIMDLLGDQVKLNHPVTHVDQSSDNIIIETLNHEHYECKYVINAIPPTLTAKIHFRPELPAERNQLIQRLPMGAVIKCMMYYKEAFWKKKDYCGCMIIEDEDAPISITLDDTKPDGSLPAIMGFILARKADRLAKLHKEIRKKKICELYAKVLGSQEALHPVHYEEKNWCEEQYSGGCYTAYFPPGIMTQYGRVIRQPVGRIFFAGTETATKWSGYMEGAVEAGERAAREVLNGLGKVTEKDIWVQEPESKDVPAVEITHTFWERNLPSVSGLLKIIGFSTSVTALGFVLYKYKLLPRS

[6] = test system: depression; conditions: meta-analysis of 14 antidepressants and placebo; cited from earlier work
[7] = typical circumstances, no MAO inhibition; cited from earlier work
[8] = Tranylcypromine 20 mg/d with placebo (no beta blocker)
[9] = Phenelzine 60 mg/d with placebo (no beta blocker)
[10] = Selegiline 10 mg/d with placebo (no beta blocker)

| Structure (SMILES) | half-life [2] | inhibitory activity of MAO-B (in words) [4] | interference with the inhibition of MAO-B by phenelzine (in words) [4] | inhibition at 2 µM [4] [%] | interference with the inhibition of MAO-A by phenelzine (in words) [5] | inhibition at 2 µM ([5]; role: inhibitor) [%] | inhibitory activity of MAO-A (in words) ([5]; role: inhibitor) | further results |
| --- | --- | --- | --- | --- | --- | --- | --- | --- |
| N[C@@H]1C[C@H]1c1ccccc1 (relative stereo) [Tranylcypromine] | approximately 2.5 hours |  |  |  |  |  |  | patients with significant transient blood pressure increases (20 mmHg or more) immediately after taking [1]: approximately 50%; TSF High [3, 8]: 55; TSF Low [3, 8]: 30; TSF ([3]; tranylcypromine at 20 mg/day): 55 |
| CC(C)NCC(O)COc1ccc(COCCOC(C)C)cc1 (centres unmarked) [Bisoprolol] | 9 to 12 h | no significant inhibitory activity | no interference was observed | 13 | no interference was observed | -5 | no significant inhibitory activity |  |
| COc1ccccc1OCCNCC(O)COc1cccc2[nH]c3ccccc3c12 (centres unmarked) [Carvedilol] |  | no significant inhibitory activity | no interference was observed | 23 | no interference was observed | 4 | no significant inhibitory activity |  |
| COC(=O)CCc1ccc(OCC(O)CNC(C)C)cc1 (centres unmarked) [Esmolol] | approximately 9 minutes |  |  |  |  |  |  |  |
| Cc1cc(C(=O)NNCc2ccccc2)no1 [Isocarboxazide] |  |  |  |  |  |  |  | % MAO-B inhibition [4]: 98%; % MAO-A inhibition ([5]; role: inhibitor, isocarboxazid 10 μM): 91% |
| NNCCc1ccccc1 [Phenelzine] | approximately 11.6 hours |  |  |  |  |  |  | efficacy compared to all other treatments (in words) [6]: superior efficacy compared to all other treatments; patients with significant transient blood pressure increases (20 mmHg or more) immediately after taking [1]: approximately 50%; TSF High [3, 9]: 30; TSF Low [3, 9]: 9; TSF ([3]; phenelzine at 45 mg/day): 13.3 |
| CC(C)NCC(O)COc1cccc2[nH]ccc12 (centres unmarked) [Pindolol, 1-(Indol-4-yloxy)-3-(isopropylamino)-2-propanol] | 3 to 4 h | no significant inhibitory activity | no interference was observed | -5 | no interference was observed | -1 | no significant inhibitory activity |  |
| C#CCN(C)[C@H](C)Cc1ccccc1 [Selegiline] |  |  |  |  |  |  |  | half-life ([2]; human): approximately 10 hours; TSF High [3, 10]: 4; TSF Low [3, 10]: 3 |
| NCCc1ccc(O)cc1 [tyramine] |  |  |  |  |  |  |  | dietary tyramine ending up in systemic circulation [7]: less than 1% |
